The source of these data is ChEMBL document CHEMBL1142701, “CHMIS-C: a comprehensive herbal medicine information system for cancer” (2005).

SMILES strings stand for the structures.

The experiment deals with Panel NCI-60 (60 carcinoma cell lines). As to the kind of experiment: Growth inhibitory activity against human cancer cell line in the NCI's anticancer drug screening program. In kind it is functional.

On to `COC(=O)CC(O)(CCC(C)(C)O)C(=O)OC1C(OC)=CC23CCCN2CCc2cc4c(cc2C13)OCO4` (stereo not given), for which it took 10 nM to inhibit growth by half (GI50).
With `C[C@H]1[C@H](C)CC[C@]2(C(=O)O)CC[C@]3(C)C(=CCC4[C@@]5(C)CC[C@H](O)C(C)(C)C5CC[C@]43C)[C@H]12` (stereo not given in full) the figure was 10 nM; with `C[C@]12CC[C@H]3[C@@H](CC[C@@]4(O)C[C@@H](O)CC[C@]34C=O)[C@]1(O)CC[C@@H]2C1=CC(=O)OC1`, 94 nM.
With `CC(=O)OC(C)(C)/C=C/C(=O)C(C)(O)C1C(O)CC2(C)C3CC=C4C(C[C@@H](O)C(=O)C4(C)C)C3(C)C(=O)CC12C` (stereo not given in full) [AMARIN] the figure was 10 nM; with `O=c1cc(-c2ccc(O)cc2)oc2cc(O[C@@H]3O[C@H](CO)[C@@H](O)[C@H](O)[C@H]3O)cc(O)c12` [APIGETRIN], 76 nM; with `COc1cccc2c1cc([N+](=O)[O-])c1c(C(=O)O)cc3c(c12)OCO3` [ARISTOLOCHIC ACID], 883 nM.
With `CC[C@@]1(O)C(=O)OCc2c1cc1n(c2=O)Cc2cc3ccccc3nc2-1` [CAMPTOTHECIN] the figure was 10 nM; with `COc1ccc2c(c[n+](C)c3c4cc5c(cc4ccc23)OCO5)c1OC` [CHELERYTHRINE CHLORIDE], 188 nM; with `CN1Cc2c(ccc3c2OCO3)C2C(O)Cc3cc4c(cc3C21)OCO4` (stereo not drawn) [CHELIDONINE (+)], 433 nM.
Regarding `COc1cc2c(c(OC)c1OC)-c1ccc(OC)c(=O)cc1[C@@H](NC(C)=O)CC2` [COLCHICINE], the GI50 turned out to be 1.7 nM. This GI50 is about 250-fold lower than that of the molecule before.
With `c1c2c(cc3c1OCO3)-c1cc3ccc4c(c3c[n+]1CC2)OCO4` [COPTISINE] the figure was 260 nM.
Turning to `COc1c2cc3c(c1OC)CCN(C)[C@@H]3Cc1ccc(cc1)Oc1cc3c(c(OC)c1OC)CCN(C)[C@@H]3Cc1ccc(cc1)O2` [CYCLEANINE], the GI50 was 17 nM.
With `CO[C@H]1C[C@H](O[C@H]2CC[C@]3(C=O)[C@H]4CC[C@]5(C)[C@@H](C6=CC(=O)OC6)CC[C@]5(O)[C@@H]4CC[C@]3(O)C2)O[C@H](C)[C@H]1O` [CYMARIN] the figure was 39 nM; with `C=C(CC[C@@H](C(=O)O)[C@H]1CC[C@@]2(C)C3=C(CC[C@]12C)[C@@]1(C)CC[C@H](O)C(C)(C)[C@@H]1CC3)C(C)C` [EBURICOIC ACID], 10000 nM; with `CC(C)(O)/C=C/C(=O)[C@](C)(O)[C@@H]1C2CC(=O)[C@@]3(C)[C@@H]4C[C@H](O)C(=O)C(C)(C)C4=CC[C@H]3[C@]2(C)C[C@H]1O` (stereo not given in full) [ELATERICIN], 23 nM.
With `O=c1oc2c(O)c(O)cc3c(=O)oc4c(O)c(O)cc1c4c23` [ELLAGIC ACID] the figure was 10 nM.
With `Cc1cc(O)c2c(c1)C(=O)c1cc(O)cc(O)c1C2=O` [EMODIN] the figure was 10000 nM; with `COc1ccc2cc1Oc1ccc(cc1)C[C@H]1c3cc(c(OC)cc3CCN1C)Oc1c(OC)c(OC)cc3c1[C@H](C2)N(C)CC3` [FANCHININ], 10 nM; with `COc1ccc2cc1Oc1ccc(cc1)C[C@@H]1c3cc(c(OC)cc3CCN1C)Oc1c(OC)c(OC)cc3c1[C@H](C2)N(C)CC3` [ISOTETRANDRINE], 10 nM.
`COc1ccc2c(c1O)-c1c(OC)c(OC)cc3c1C(C2)[N+](C)(C)CC3` (stereo not given) [MENISPERINE] returned a GI50 of 41 nM.
With `CC(C)c1oc(=O)cc2c1C(O)C1OC(=O)C3(C)C(O)C4OC4C2(C)C13` (stereo not given) [NAGILACTONE] the figure was 363 nM; with `O=C1N[C@@H]2C(=C[C@H](O)[C@@H](O)[C@H]2O)c2cc3c(c(O)c21)OCO3` [NARCICLASINE], 45 nM; with `COc1cc2c[n+](C)c3c4cc5c(cc4ccc3c2cc1OC)OCO5` [NITIDINE CHLORIDE], 125 nM.
With `COC(=O)C(O)C(O)(CCC(C)C)C(=O)OC1C(OC)=CC23CCCN2CCc2cc4c(cc2C13)OCO4` (stereo not given) [OHARRINGTONINE] the figure was 10 nM.
As to `CCCCCCCC/C=C\CCCCCCCC(=O)O` [OLEIC ACID], halving of growth (GI50) required 10000 nM.
With `COC(=O)C[C@](O)(CCCC(C)(C)O)C(=O)O[C@@H]1C(OC)=C[C@]23CCCN2CCc2cc4c(cc2[C@H]13)OCO4` [OMACETAXINE MEPESUCCINATE] the figure was 4.4 nM; with `C=C1C(=O)[C@]23[C@H](O)[C@H]1CC[C@H]2[C@@]12CO[C@]3(O)[C@@H](O)[C@@H]1C(C)(C)CC[C@@H]2O` [ORIDONIN], 453 nM.
With `CC(=O)O[C@H]1C(=O)[C@@]2(C)[C@H]([C@H](OC(=O)c3ccccc3)[C@]3(O)C[C@H](OC(=O)[C@H](O)[C@@H](NC(=O)c4ccccc4)c4ccccc4)C(C)=C1C3(C)C)[C@]1(OC(C)=O)CO[C@@H]1C[C@@H]2O` [PACLITAXEL] the figure was 0.1 nM; with `COc1cc([C@@H]2c3cc4c(cc3[C@H](O)[C@H]3COC(=O)[C@H]23)OCO4)cc(OC)c1OC` [PODOFILOX], 10 nM.
With `CC(C=CC=C(C)/C=C/C1=C(C)CCCC1(C)C)=CCO` [RETINOL] the figure was 28 nM.
